In ChEMBL document CHEMBL1158466, “Discovery of novel 2-aminobenzamide inhibitors of heat shock protein 90 as potent, selective and orally active antitumor agents” (J Med Chem, 2009):
In brackets after ≈: the same amount, converted by molar mass.

How the values were obtained:
Heat shock protein HSP90 [1] = target: T1, Heat shock protein HSP90 (Homo sapiens, UniProt P07900+P08238); assay type: cell-based; details: au565
[2] = Binding affinity to pig spleen Hsp90 ATPase pocket by Bradford assay; assay type: tissue-based, Sus scrofa
[3] = Oral bioavailability in rat; assay type: ADME, organism-based; details: in vivo
A-375 = assay: Antiproliferative activity against human A375 cells after 72 to 144 hrs by cyquant DNA dye method; assay type: functional, cell-based
LNCaP = assay: Antiproliferative activity against human LNCAP cells after 72 to 144 hrs by cyquant DNA dye method; assay type: functional, cell-based
MCF7 = assay: Antiproliferative activity against human MCF7 cells after 72 to 144 hrs by cyquant DNA dye method; assay type: functional, cell-based
HT-29 = assay: Antiproliferative activity against human HT-29 cells after 72 to 144 hrs by cyquant DNA dye method; assay type: functional, cell-based
SW-620 = assay: Antiproliferative activity against human SW620 cells after 72 to 144 hrs by cyquant DNA dye method; assay type: functional, cell-based
SK-MEL-5 = assay: Antiproliferative activity against human SK-MEL-5 cells after 72 to 144 hrs by cyquant DNA dye method; assay type: functional, cell-based
PC-3 = assay: Antiproliferative activity against human PC3 cells after 72 to 144 hrs by cyquant DNA dye method; assay type: functional, cell-based
MDA-MB-231 = assay: Antiproliferative activity against human MDA-MB-231 cells after 72 to 144 hrs by cyquant DNA dye method; assay type: functional, cell-based
NCI-H460 = assay: Antiproliferative activity against human NCI-H460 cells after 72 to 144 hrs by cyquant DNA dye method; assay type: functional, cell-based
HCT-15 = assay: Antiproliferative activity against human HCT15 cells after 72 to 144 hrs by cyquant DNA dye method; assay type: functional, cell-based
K562 = assay: Antiproliferative activity against human K562 cells after 72 to 144 hrs by cyquant DNA dye method; assay type: functional, cell-based
Heat shock protein HSP90 [4] = target: T1, Heat shock protein HSP90; details: a-375
Description: Inhibition of Hsp90 in human A375 cells assessed as Hsp70 induction after 24 hrs by high content screening

Heat shock protein HSP90 [5] = target: T1, Heat shock protein HSP90; details: a-375; remark: listed apart in the source
Description: Inhibition of Hsp90 in human A375 cells assessed as pS6 degradation after 24 hrs by high content screening

Heat shock protein HSP90 [6] = target: T1, Heat shock protein HSP90; details: au565
Description: Inhibition of Hsp90 in human AU565 cells assessed as pERK degradation after 24 hrs by high content screening

[7] = Oral bioavailability in mouse; assay type: ADME, organism-based; details: in vivo
Liver microsomes = assay: Metabolic stability in human liver microsomes at 1 uM after 1 hr; assay type: ADME, Microsome
[8] = Metabolic stability in human liver S9 fraction assessed as drug remaining at 1 uM after 1 hr; assay type: ADME, subcellular; details: read-out: Stability
[9] = Solubility of the compound; assay type: physicochemical
[10] = Aqueous solubility in phosphate-buffered saline at pH 7.4; assay type: physicochemical

Cc1nn(-c2ccc(C(N)=O)c(NC3CCOCC3)c2)c2c1C(=O)CC(C)(C)C2
IC50 (Heat shock protein HSP90 [1]): 0.05 µM
Kd [2]: 0.043 µM

CC1(C)CC(=O)c2c(C(F)(F)F)nn(-c3ccc(C(N)=O)c(NCCCN4CCCC4=O)c3)c2C1
IC50 (Heat shock protein HSP90 [1]): 0.264 µM
Kd [2]: 0.094 µM

Cc1c2c(n(-c3ccc(C(N)=O)c(N[C@H]4CC[C@H](O)CC4)c3)c1C)CC(C)(C)CC2=O
IC50 (Heat shock protein HSP90 [1]): 0.064 µM
Kd [2]: 0.086 µM

Cc1cn(-c2ccc(C(N)=O)c(N[C@@H](C)c3ccccc3)c2)c2c1C(=O)CC(C)(C)C2
IC50 (Heat shock protein HSP90 [1]): 0.418 µM
Kd [2]: 1.02 µM

CC(C)c1nn(-c2ccc(C(N)=O)c(N[C@H]3CC[C@H](O)CC3)c2)c2c1C(=O)CC(C)(C)C2
IC50 (Heat shock protein HSP90 [1]): 0.203 µM
Kd [2]: 0.177 µM

CSCCNc1cc(-n2nc(C)c3c2CC(C)(C)CC3=O)ccc1C(N)=O
IC50 (Heat shock protein HSP90 [1]): 0.226 µM
Kd [2]: 0.063 µM

Cc1cn(-c2ccc(C(N)=O)c(N3CCNCC3)c2)c2c1C(=O)CC(C)(C)C2
IC50 (Heat shock protein HSP90 [1]): > 7 µM
Kd [2]: 0.843 µM

COc1cc(Nc2cc(-n3cc(C)c4c3CCCC4=O)ccc2C(N)=O)cc(OC)c1OC
IC50 (Heat shock protein HSP90 [1]): 1.61 µM
Kd [2]: 0.94 µM

Cc1cc2c(n1-c1ccc(C(N)=O)c(Nc3ccccc3)c1)CC(C)(C)CC2=O
IC50 (Heat shock protein HSP90 [1]): 6.4 µM
Kd [2]: 0.37 µM

COCCNc1cc(-n2c(C)cc3c2CC(C)(C)CC3=O)ccc1C(N)=O
IC50 (Heat shock protein HSP90 [1]): > 10 µM
Kd [2]: 0.39 µM

Cc1cn(-c2ccc(C(N)=O)c(NCCN3CCOCC3)c2)c2c1C(=O)CC(C)(C)C2
IC50 (Heat shock protein HSP90 [1]): > 4 µM
Kd [2]: 0.294 µM

Cc1cc2c(n1-c1ccc(C(N)=O)cc1)CC(C)(C)CC2=O
IC50 (Heat shock protein HSP90 [1]): > 100 µM
Kd [2]: 3.73 µM

CCCCCc1cc(-n2c(C)cc3c2CC(C)(C)CC3=O)ccc1C(N)=O
IC50 (Heat shock protein HSP90 [1]): > 10 µM
Kd [2]: 1.96 µM

CC1(C)CC(=O)c2c(CC3CC3)nn(-c3ccc(C(N)=O)c(N[C@H]4CC[C@H](O)CC4)c3)c2C1
IC50 (Heat shock protein HSP90 [1]): 0.046 µM
Kd [2]: 0.041 µM

CCCCOc1cc(-n2c(C)cc3c2CC(C)(C)CC3=O)ccc1C(N)=O
IC50 (Heat shock protein HSP90 [1]): > 10 µM
Kd [2]: > 50 µM

COc1ccc(Nc2cc(-n3c(C)cc4c3CC(C)(C)CC4=O)ccc2C(N)=O)cc1
IC50 (Heat shock protein HSP90 [1]): 1.59 µM
Kd [2]: 0.69 µM

Cc1cc2c(n1-c1ccc(C(N)=O)c(Sc3ccccc3)c1)CC(C)(C)CC2=O
IC50 (Heat shock protein HSP90 [1]): > 10 µM
Kd [2]: 1.06 µM

COc1cc(Nc2cc(-n3cc(C)c4c3CC(C)(C)CC4=O)ccc2C(N)=O)cc(OC)c1OC
IC50 (Heat shock protein HSP90 [1]): 0.046 µM
Kd [2]: 0.39 µM

CC1(C)CC(=O)c2c(C(F)F)nn(-c3ccc(C(N)=O)c(N[C@H]4CC[C@H](O)CC4)c3)c2C1
IC50 (Heat shock protein HSP90 [1]): 0.016 µM
Kd [2]: 0.098 µM

CC1(C)CC(=O)c2c(C(F)(F)F)nn(-c3ccc(C(N)=O)c(N[C@H]4CC[C@@H](O)CC4)c3)c2C1
Kd [2]: 0.53 µM

CC1(C)CC(=O)c2c(C(F)F)nn(-c3ccc(C(N)=O)c(NC4CCSCC4)c3)c2C1
IC50 (Heat shock protein HSP90 [1]): 0.035 µM
Kd [2]: 0.011 µM

Cc1nn(-c2ccc(C(N)=O)c(NCc3ccco3)c2)c2c1C(=O)CC(C)(C)C2
IC50 (Heat shock protein HSP90 [1]): > 1 µM
Kd [2]: 0.216 µM

Cc1nn(-c2ccc(C(N)=O)c(NCC3CC3)c2)c2c1C(=O)CC(C)(C)C2
IC50 (Heat shock protein HSP90 [1]): 0.184 µM
Kd [2]: 0.051 µM

Cc1nn(-c2ccc(C(N)=O)c(NC(C)S(C)(=O)=O)c2)c2c1C(=O)CC(C)(C)C2 (stereo unspecified)
IC50 (Heat shock protein HSP90 [1]): 0.147 µM
Kd [2]: 0.014 µM

COCC(C)Nc1cc(-n2nc(C)c3c2CC(C)(C)CC3=O)ccc1C(N)=O (stereo unspecified)
IC50 (Heat shock protein HSP90 [1]): 0.115 µM
Kd [2]: 0.067 µM

CCCCNc1cc(-n2c(C)cc3c2CC(C)(C)CC3=O)ccc1C(N)=O
IC50 (Heat shock protein HSP90 [1]): > 10 µM
Kd [2]: 0.39 µM

COc1cc(Nc2cc(-n3c(C)cc4c3CC(C)(C)CC4=O)ccc2C(N)=O)cc(OC)c1OC
IC50 (Heat shock protein HSP90 [1]): 0.49 µM
Kd [2]: 0.22 µM

COc1cc(Nc2cc(-n3ccc4c3CC(C)(C)CC4=O)ccc2C(N)=O)cc(OC)c1OC
IC50 (Heat shock protein HSP90 [1]): 1.83 µM
Kd [2]: 0.00059 µM

CCc1nn(-c2ccc(C(N)=O)c(N[C@H]3CC[C@H](O)CC3)c2)c2c1C(=O)CC(C)(C)C2
IC50 (Heat shock protein HSP90 [1]): 0.009 µM
Kd [2]: 0.02 µM

Cc1cn(-c2ccc(C(N)=O)c(N[C@H]3CC[C@H](O)CC3)c2)c2c1C(=O)CC(C)(C)C2
IC50 (Heat shock protein HSP90 [1]): 0.007 µM
bioavailability [3]: 10%
Kd [2]: 0.027 µM
IC50 (A-375): 0.009 µM
IC50 (LNCaP): 0.004 µM
IC50 (MCF7): 0.01 µM
IC50 (HT-29): 0.007 µM
IC50 (SW-620): 0.006 µM
IC50 (SK-MEL-5): 0.007 µM
IC50 (PC-3): 0.014 µM
IC50 (MDA-MB-231): 0.01 µM
IC50 (NCI-H460): 0.248 µM
IC50 (HCT-15): 0.061 µM
IC50 (K562): 0.003 µM
IC50 (Heat shock protein HSP90 [4]): 0.014 µM
IC50 (Heat shock protein HSP90 [5]): 0.007 µM
IC50 (Heat shock protein HSP90 [6]): 0.016 µM

Cc1nn(-c2ccc(C(N)=O)c(N[C@H]3CC[C@H](O)CC3)c2)c2c1C(=O)CC(C)(C)C2
IC50 (Heat shock protein HSP90 [1]): 0.03 µM
Kd [2]: 0.016 µM

Cc1nn(-c2ccc(C(N)=O)c(NC3CCC3)c2)c2c1C(=O)CC(C)(C)C2
IC50 (Heat shock protein HSP90 [1]): 0.229 µM
Kd [2]: 0.114 µM

COCC(COC)Nc1cc(-n2nc(C(F)(F)F)c3c2CC(C)(C)CC3=O)ccc1C(N)=O
IC50 (Heat shock protein HSP90 [1]): 0.181 µM
Kd [2]: 0.078 µM

Cc1nn(-c2ccc(C(N)=O)c(NC3CC=CC3)c2)c2c1C(=O)CC(C)(C)C2
IC50 (Heat shock protein HSP90 [1]): 0.111 µM
Kd [2]: 0.015 µM

CC1(C)CC(=O)c2c(C(F)(F)F)nn(-c3ccc(C(N)=O)c(N[C@H]4CC[C@H](O)CC4)c3)c2C1 [SNX-2112]
bioavailability [7]: 40%
Kd [2]: 0.016 µM
IC50 (A-375): 0.023 µM
IC50 (LNCaP): 0.003 µM
IC50 (MCF7): 0.053 µM
IC50 (HT-29): 0.003 µM
IC50 (SW-620): 0.003 µM
IC50 (SK-MEL-5): 0.006 µM
IC50 (PC-3): 0.017 µM
IC50 (MDA-MB-231): 0.006 µM
IC50 (NCI-H460): 0.018 µM
IC50 (HCT-15): 0.052 µM
IC50 (K562): 0.006 µM
Stability (Liver microsomes): Stable
remaining at 1 h, 1 µM [8]: 88%
solubility [9]: 170 µM (≈ 79 µg/mL)
solubility [10]: 6 µM (≈ 2.79 µg/mL)

C=CCNC1=C2C[C@@H](C)C[C@H](OC)[C@H](O)[C@@H](C)/C=C(\C)[C@H](OC(N)=O)[C@@H](OC)/C=C\C=C(/C)C(=O)NC(=CC1=O)C2=O [TANESPIMYCIN]
Kd [2]: 0.087 µM
IC50 (A-375): 1.29 µM
IC50 (LNCaP): 0.082 µM
IC50 (MCF7): 0.0003 µM
IC50 (HT-29): 0.0001 µM
IC50 (SW-620): 0.328 µM
IC50 (SK-MEL-5): 0.134 µM
IC50 (PC-3): 0.009 µM
IC50 (MDA-MB-231): 0.194 µM
IC50 (NCI-H460): 0.255 µM
IC50 (HCT-15): 1.49 µM
IC50 (K562): 0.126 µM
